Literature values as cited in patent publication US20130001095A1, “METHOD OF PRODUCING COUPLED RADICAL PRODUCTS” (priority 2009, published 2013).

In the case of `O=C([O-])CCCC(=O)[O-].[Na+].[Na+]` [Sodium glutarate], the solubility in methanol (methanol) is listed as “not soluble” and the solubility in water (water) is listed as “soluble”.
